Activity calls are given as the source filed them. The calls are words filed in the database; no cut-off is given here.
What was measured:
[1] = Aqueous solubility of the compound; type: physicochemical; settings: water (aqueous)
[2] = Cytotoxicity against human SKOV3 cells assessed as cell viability after 48 hrs by MTT assay; type: functional, cell-based; settings: SK-OV-3, 48 h
[3] = Cytotoxicity against human H460 cells assessed as cell viability after 48 hrs by MTT assay; type: functional, cell-based; settings: NCI-H460, 48 h
[4] = tested on: HepG2; test: Cytotoxicity against human HepG2 cells assessed as cell viability after 48 hrs by MTT assay; type: functional, cell-based; settings: HepG2, 48 h
[5] = tested on: SK-OV-3; test: Antitumor activity against human SKOV3 cells xenografted in BALB/C mouse assessed as mouse survival at 10 mg/kg, iv qd relative to control; type: functional, organism-based; parameters: dose 10 mg/kg
[6] = tested on: Serum; test: Stability of the compound in Wistar rat serum assessed as prodrug degradation after 24 hrs; type: ADME, cell-free
[7] = tested on: Serum; test: Stability of the compound in Wistar rat serum assessed as prodrug degradation after 6 hrs; type: ADME, cell-free
[8] = Antitumor activity against human H460 cells xenografted in BALB/C mouse assessed as inhibition ratio at 20 mg/kg, ip qd relative to control; type: functional; settings: NCI-H460, ip, route intraperitoneal
[9] = Antitumor activity against human SKOV3 cells xenografted in BALB/C mouse assessed as inhibition ratio at 10 mg/kg, iv qd relative to control; type: functional; settings: SK-OV-3
[10] = tested on: NCI-H460; test: Antitumor activity against human H460 cells xenografted in BALB/C mouse assessed as mouse survival at 20 mg/kg, ip qd relative to control; type: functional, organism-based; parameters: dose 20 mg/kg

SMILES	solubility [1]	Drug degradation [6]	Drug degradation [7]	IC50 [2]	IC50 [3]	IC50 [4]	Activity [5]	inhibition in vivo at 20 mg/kg [8]	inhibition in vivo at 10 mg/kg [9]	Activity [10]
CCOc1ccc(-c2nc(NC(=O)[C@H](N)Cc3ccccc3)sc2-c2cc(OC)c(OC)c(OC)c2)cc1				> 2000 nM	> 2000 nM	600 nM				
CCOc1ccc(-c2nc(NC(=O)C(C)(C)N)sc2-c2cc(OC)c(OC)c(OC)c2)cc1				900 nM	> 2000 nM	600 nM				
CCOc1ccc(-c2nc(NC(=O)[C@H]3CCCN3)sc2-c2cc(OC)c(OC)c(OC)c2)cc1				510 nM	> 2000 nM	290 nM				

Now from value to compound, other results behind:

solubility [1]	Drug degradation [6]	Drug degradation [7]	SMILES	IC50 [2]	IC50 [3]	IC50 [4]	Activity [5]	inhibition in vivo at 20 mg/kg [8]	inhibition in vivo at 10 mg/kg [9]	Activity [10]
< 0.1 mM			CCOc1ccc(-c2nc(N)sc2-c2cc(OC)c(OC)c(OC)c2)cc1	10 nM	200 nM	210 nM				
> 10 mM	99.53%	93.03%	CCOc1ccc(-c2nc(NC(=O)[C@H](C)N)sc2-c2cc(OC)c(OC)c(OC)c2)cc1.Cl	460 nM	210 nM	430 nM	Active	56.6%	28.7%	Active
> 10 mM	25.92%	17.43%	CCOc1ccc(-c2nc(NC(=O)CN)sc2-c2cc(OC)c(OC)c(OC)c2)cc1.Cl	200 nM	210 nM	260 nM	Active	51.1%	17.6%	Active

Source: ChEMBL document CHEMBL3425422, “Discovery of a potent microtubule-targeting agent: Synthesis and biological evaluation of water-soluble amino acid prodrug of combretastatin A-4 derivatives” (Bioorg Med Chem Lett, 2015)
